Measured values as given in patent publication US20030181510A1, “Inhibition of muscle regeneration following myectomy” (priority 2002, published 2003).

Columns and labels:
[1] = system: satellite cells derived from mouse gastrocnemius and soleus muscles; test: Satellite cell proliferation in secondary satellite cell cultures (cell count per ocular grid); type: cell-based; conditions: genistein added to culture medium as in Example 1, on day 1 or day 2; control 0.05% DMSO; P<0.0001 one day after, P<0.00001 at days 2-5 after addition; FIG. 2
Description: Method: To analyze satellite cell proliferation secondary satellite cell cultures derived from mouse gastrocnemius and soleus muscles prepared as in Example 1 were fed fresh medium every day. This generally accepted procedure prolongs proliferation and inhibits differentiation and fusion. Two experimental groups were formed by adding genistein to the culture medium, as in Example 1. […] Living cultures were placed on the stage of a phase-contrast microscope and the number of cells contained within an ocular grid was counted at 100× to 200× total magnification. This cell-counting procedure was performed daily through the sixth day of culture.

[2] = populations of Southeast Asians consuming 70 mg/day of genistein; cited from earlier work
[3] = system: mouse primary satellite cells; test: Fusion of mouse primary satellite cells to myofibers in culture (fusion index); type: cell-based; conditions: genistein in culture medium, added on first, second or third day of culture; control 0.05% DMSO; day 3 P<0.002, day 5 P<0.0001 (Student's t-test); FIG. 1
Procedure: Method: Thigh muscle tissue was removed from post-natal day 20-30 mouse pups and the tissue reduced to single cells by a method based largely on a protocol by DiMario and Strohman (DiMario, J. and Strohman, R. C.; 1988). Gastrocnemius and soleus muscles were dissected free of surrounding tissue and finely minced with scissors. The minced tissue was mixed with 0.10% crude collagenase and incubated at 37° C. for 30 minutes with occasional trituration through the bore of a 5 ml glass pipette to break up tissue pieces. The collagenase-tissue slurry was centrifuged briefly to pellet the tissue pieces, muscle fibers, and cells. […] The number of cells was determined and aliquots were appropriately diluted with culture medium so that a known number of satellite cells (80,000) could be added to additional 35 mm collagen-coated dishes for analysis of cell proliferation and fusion. […]
Fusion of satellite cells to form muscle fibers is generally accomplished by removing the source of growth factors in the culture medium. […] As fusion of satellite cells to form myofibers began, the number of nuclei contained within mononucleated cells, primarily satellite cells, and those within myofibers were counted differentially at a magnification of 200×. […]

O=c1c(-c2ccc(O)cc2)coc2cc(O)cc(O)c12 [genistein, 5,7-dihydroxy-3-(4-hydroxyphenyl)-4H-1-benzopyran-4-one]
division of satellite cells (number of cells per reticle-grid vs control cultures) [1]: eliminated the division of satellite cells
ill effects on dietary consumption [2]: without obvious ill effects
fusion of satellite cells (fusion index vs control cultures) [3]: inhibited the fusion of satellite cells
